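Grown in 96-well plates, cells were treated for 48 hours with each compound at five concentrations. Insufficient inhibition: endpoint recorded as highest concentration tested. Abbreviation: GI50, concentration required for 50% inhibition of growth. Definition used: TGI = concentration required for complete inhibition of growth.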 Calls of active or inactive are those of the source. Cut-off read from the data, not from the text of the source: active = GI50 below about 0.43 µM; inactive = the rest.
Columns and labels:
Assay in all cases: DTP human tumour cell line panel, 48 h
[1] = system: A549 NSCLC
[2] = system: HCT-15 colon
[3] = system: HT29 colon
[4] = system: LOX IMVI melanoma
[5] = system: M14 melanoma
[6] = system: MDA-MB-231 breast
[7] = system: PC-3 prostate
[8] = system: SF-268 CNS
[9] = system: U251 CNS

Row | SMILES | GI50 [1] [µM] | TGI [1] [µM] | GI50 [2] [µM] | TGI [2] [µM] | GI50 [3] [µM] | TGI [3] [µM] | GI50 [4] [µM] | TGI [4] [µM] | GI50 [5] [µM] | TGI [5] [µM] | GI50 [6] [µM] | TGI [6] [µM] | GI50 [7] [µM] | TGI [7] [µM] | GI50 [8] [µM] | TGI [8] [µM] | GI50 [9] [µM] | TGI [9] [µM] | outcome [1] | outcome [8]
1 | Cc1cc2c(cc1Cl)SC1=NN(C)S(=O)N1S2(=O)=O (configuration not stated) | > 100 | > 100 | > 100 | > 100 | > 100 | > 100 | > 100 | > 100 | > 100 | > 100 | > 100 | > 100 | > 100 | > 100 | > 100 | > 100 | > 100 | > 100 |  | 
2 | CCN(CC)CCCC(C)Nc1c2ccc(Cl)cc2nc2ccc(O)cc12 (configuration not stated) | 1.47 | 3.67 | 2.98 | 11 | 1.22 | 5.39 | 1.6 | 3.22 | 1.56 | 2.99 | 2 | 5.39 | 3.58 | 18.5 | 2.04 | 11.3 | 2.49 | 11.4 |  | 
3 | COc1cc2ncn(-c3cc(OCc4cccs4)c(C(N)=O)s3)c2cc1OC | 1.87 | > 17.5 | 1.64 | > 25 | 0.875 | > 25 | 1.19 | > 19.2 | 1.82 | > 17.3 | 2.21 | > 21.2 | 3.43 | > 25 | 1.95 | > 25 | 1.48 | > 25 |  | 
4 | C[N+]1=C(/C=C/c2ccc(O)c3ncccc23)C(C)(C)c2ccccc21 | 2.96 | 13.4 | 0.893 | 15.1 | 3.19 | 12.6 | 2.32 | 5.74 | 2.53 | 7.7 | 2.75 | 11 | 2.79 | 22 | 2.73 | 14.1 | 2.4 | 17.1 |  | 
5 | O=C(CCc1nnc2sc(-c3ccc(Cl)cc3Cl)nn12)c1nc2ccccc2[nH]1 | 1.88 | 4.96 | 0.452 | 2.77 | 0.374 | 2.01 | 0.233 | 0.671 | 0.282 | 1.03 | 0.746 | 2.21 | 0.865 | 3.62 | 0.994 | 2.85 | 0.932 | 2.26 |  | 
6 | Nc1nccc(-c2c(-c3ccc(F)cc3)ncn2C2CCC(O)CC2)n1 (configuration not stated) | 4.03 | > 25 | 7.15 | > 25 | 6.8 | > 25 | 9.34 | > 25 | 14 | > 25 | 14.5 | > 25 | 13.3 | > 25 | 10.2 | > 25 | 9.99 | > 25 |  | 
7 | COc1ccc(C(=O)C#Cc2cnc(OC)nc2OC)cc1 |  | 15.7 | 17200 |  | 17900 |  | 9800 |  | 27900 | 2.64 |  | 86700 | 27800 | 2.58 |  | 7.41 | 58900 | 2.62 | inactive | inactive

— PubChem BioAssay (NCI)
